The text below walks through data of patent US20220202964A1, “HEPARANASE COMPOUNDS AND METHODS OF USE” (University of Florida Research Foundation, Incorporated, priority 2019, published 2022).

Read-outs that look alike come from different tables or passages of the source.

The nature of data set [1]: pH profile of fluorescence / pKa. The class given is physicochemical. The conditions noted are these: hydrolytic product of HADP, fluorescence vs pH. The protocol:
So, pH profiles of the fluorophore DiFMU and Compound 1 (HADP) were evaluated. […] In contrast, the pKa of 4-methylumbelliferone is ca. 7.8. […] Moreover, the introduction of the fluorine substituents increased the quantum yield and improved the photostability, enabling highly sensitive detection for heparanase.

In data set [2] the target is T1, heparanase (Homo sapiens, UniProt Q9Y251).
T1 sequence (Q9Y251 36-543): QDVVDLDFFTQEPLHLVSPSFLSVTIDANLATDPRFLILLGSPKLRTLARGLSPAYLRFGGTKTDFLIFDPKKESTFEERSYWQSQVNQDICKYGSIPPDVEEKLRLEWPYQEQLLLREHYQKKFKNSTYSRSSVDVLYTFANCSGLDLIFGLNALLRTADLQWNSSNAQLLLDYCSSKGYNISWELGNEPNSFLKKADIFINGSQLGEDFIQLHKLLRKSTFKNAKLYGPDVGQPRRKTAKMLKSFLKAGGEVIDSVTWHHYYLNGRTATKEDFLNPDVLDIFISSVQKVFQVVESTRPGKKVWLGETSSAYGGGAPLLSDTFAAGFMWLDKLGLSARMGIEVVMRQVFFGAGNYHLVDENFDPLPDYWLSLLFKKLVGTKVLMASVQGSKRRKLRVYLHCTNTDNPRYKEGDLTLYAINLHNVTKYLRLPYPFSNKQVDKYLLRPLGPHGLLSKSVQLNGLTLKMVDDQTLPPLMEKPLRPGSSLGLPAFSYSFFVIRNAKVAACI
Briefly: Activation of compounds by recombinant heparanase (fluorescence response). The conditions noted are these: 5 μM compound, 1 μg heparanase, 40 mM NaOAc buffer (pH 5.0), 37° C., λex/em=365 nm/455 nm. It counts as biochemical. The procedure:
To a solution of 20 μL, of 50 μM compound 1 (HADP) and 160 μL 40 mM NaOAc (pH=5.0) was added 20 μL, 0.1 μg/μL heparanase to obtain 5 μM 1 (HADP) with 2 μg heparanase solution. After incubation at 37° C. for 2 h, the reaction solution was transferred to quartz cuvettes to measure absorbance or fluorescence. Absorbance spectrum scan range from 250 nm to 500 nm (1 nm increment). fluorescence spectrum setting: λex=365 nm, Slit Width 2.5 nm. Emission was record from 400 nm to 600 nm, Slit Width 5 nm. Absorption spectra were recorded on Shimadzu UV-2700 UV-VIS Spectrophotometer. Fluorescence spectra were recorded on Fluorolog TAU-3 Spectrofluorometer with a xenon lamp (Jobin Yvon-Spex, Instruments S. A., Inc.)
Fluorescence micro cells was charged with 20 μL, of 50 μM compound 1 (HADP) and 160 μL 40 mM NaOAc (pH=5.0). Then 20 μL, 0.05 μg/μL heparanase was added to the above solution. Fluorescence spectra were recorded from 0 min to 3 h. fluorescence spectrum setting: λex=365 nm, Slit Width 2.5 nm. Emission was record from 400 nm to 600 nm, Slit Width 5 nm.
To a solution of 20 μL, of 50 μM each compound and 160 μL, 40 mM NaOAc (pH=5.0) was added 20 μL, 0.05 μg/μL heparanase to obtain 5 μM each compound with 1 μg heparanase solution in 96-well microplate. Each compound was performed in triplicate. Then the microplate was sealed with sealing film and incubated at 37° C. Fluorescence intensity was recorded on Spectramax M5 Multimode plate reader (Molecular Devices, USA) at each timepoint. λex/em=365 nm/455 nm.
5 μM compound 1 (HADP) was incubated with various biological species at the indicated amount/concentration in 96-well microplate. Cysteine (5 mM), Glutathione (5 mM), H2O2 (100 μM), Esterase, Chondroitinase ABC, Hyaluronidase, Lysozyme, β-Glucuronidase, β-Glucosidase (5 μg each) and heparanase (2 μg). For Chondroitinase ABC and Hyaluronidase, 50 μg was also tested. Each sample was performed in triplicates. Then the microplate was sealed with sealing film and incubated at 37° C. for 4 hours. Fluorescence intensity was recorded on Spectramax M5 Multimode plate reader (Molecular Devices, USA). λex/em=365 nm/455 nm.

For data set [3], the target named is T1, heparanase. Briefly: HPLC analysis of compounds 1-4 with heparanase. The conditions noted are these: 5 μM, heparanase 1 μg, 4 hours, 37° C., NaOAc pH 5.0. It counts as biochemical. The protocol: Heparanase (1 μg, 20 μL) was added to the compounds 1-4 solution (180 μL, 5 μM) in 40 mM NaOAc buffer (pH 5.0) and the mixture was incubated for 4 hours at 37° C. The resulting mixtures were injected into HPLC for analysis. HPLC analysis was performed under the following conditions—mobile phase A: water with 0.1% TFA; B: acetonitrile with 0.1% TFA; 0-20 min: gradient elution, 25-95% B. The trace was monitored by DAD detector at 315 nm.

For data set [4] the following is noted: stated for comparison; cited from earlier work.
The target in data set [5] is T1, heparanase. The conditions noted are these: substrate for heparanase, comparison value; cited from earlier work.

On to `Cc1cc(=O)oc2c(F)c(O)c(F)cc12` [DiFMU, 6,8-difluoro-7-hydroxy-4-methylcoumarin, reference compound], for which the pKa in data set [1] was roughly 4.7.
Turning to “(2S,3S,4R,5R,6S)-3-(((2R,3R,4R,5S,6R)-4,5-dihydroxy-6-((sulfooxy)methyl)-3-(((E)-trioxidaneyl-14-sulfaneylidene)amino)tetrahydro-2H-pyran-2-yfloxy)-4,5-dihydroxy-6-((4-methyl-2-oxo-2H-chromen-7-yl)oxy)tetrahydro-2H-pyran-2-carboxylic acid [Compound 4]”, at heparanase [2], the “fluorescence response towards heparanase” value is on record as “could not be activated by heparanase”. On heparanase [3], the “cleavage by heparanase (HPLC trace)” value was “could not be cleaved by heparanase”.
Take `Cc1cc(=O)oc2cc(O)ccc12` [4-methylumbelliferone]: the pKa entry in data set [4] is “ca. 7.8”.
Take `CO[C@H]1O[C@H](COS(=O)(=O)O)[C@@H](O[C@@H]2O[C@@H](C(=O)O)[C@@H](O[C@H]3O[C@H](COS(=O)(=O)O)[C@@H](O[C@@H]4O[C@H](C(=O)O)[C@@H](O[C@H]5O[C@H](COS(=O)(=O)O)[C@@H](O)[C@H](O)[C@H]5NS(=O)(=O)O)[C@H](O)[C@H]4O)[C@H](OS(=O)(=O)O)[C@H]3NS(=O)(=O)O)[C@H](O)[C@H]2OS(=O)(=O)O)[C@H](O)[C@H]1NS(=O)(=O)O` [fondaparinux]: the Km on heparanase [5] was 46 µM.
On to “(2S,3S,4R,5R,6S)-6-((8-(difluoromethyl)-4-methyl-2-oxo-2H-chromen-7-yl)oxy)-3-(((2R,3R,4R,5S,6R)-3-((hydrosulfonyloxy)amino)-4,5-dihydroxy-6-(hydroxymethyl)tetrahydro-2H-pyran-2-yl)oxy)-4,5-dihydroxytetrahydro-2H-pyran-2-carboxylic acid [Compound 3]”, for which the “fluorescence response towards heparanase” value at heparanase [2] is given as “very slight fluorescence enhancement”. For the same molecule, the “cleavage by heparanase (HPLC trace)” value at heparanase [3] was “could not be cleaved by heparanase”.
